# Measured values reported in patent US11026940B2, “Compositions for the mobilization, homing, expansion and differentiation of stem cells and methods of using the same” (Ampio Pharmaceuticals, Inc., priority 2013, dated 2021).
# Experiments:
# CXCL12 = CXCL12 transcription by MSC in hanging drop (3D) culture, RTPCR; assay type: cell-based, human; conditions: Actin normalization, 4 days
# Protocol: (§1) This effect is more pronounced if the cells are grown directly on plastic in a 2D conformation. In this example, MSCs are cultured in hanging drop cultures in the presence of Ampion™ and then mRNA is evaluated by RTPCR.
# (§2) Materials: • Passage 5 Bone marrow derived human mesenchymal stem cells (HUXMA-01001, Cyagen Biosciences, Sunnyvale Calif.) • Mesenchymal Stem Cell Chondrogenic Differentiation medium (GUXMX-90041, Cyagen Biosciences, Sunnyvale Calif.) • TheraPEAK MSCGM chemically defined Stem cell medium (190632 Lonza) • Lonza MSGM (contains serum) • 10 mM Cobalt chloride in saline, sterile filtered (Sigma) • Saline or 0.9% Sodium chloride for injection ZR Flush (Excelsior Medical, Neptune N.J.) • 0.2 μM syringe filters • Hepes buffered saline, Trypsin/EDTA, Trypsin neutralizing solution (Lonza reagent pack) • 182 cm^2 tissue culture flasks • pipettes and sterile tips • Tissue culture hood, humidified CO2 incubator, water or bead bath • 10 cm^2 petri dishes • Qiagen RNeasy plus spin columns (Qiagen 74134) • Qiagen RT^2 qPCR primer pairs for CXCR4, CXCL12, Collagen 2A1, MMP14, MMP13, Aggrecan, IGA4, GAPDH, and Actin B • Roche Sybr green I master mix and Invitrogen Superscript VILO master mix. • Roche 480 lightcycler Cell Expansion: • Passage 5 HUXMA cells were removed from liquid nitrogen storage and expanded in 182 cm^2 flasks containing 40 mls TheraPEAK MSCGM until 80-90% confluence. • Trypsinize cells using standard protocol and proceed to the next step. […] RNA Isolations and Analysis: • After 4 days, remove the plates from the incubator. • Wash spheroids from the lid with 5 mls of the warm PBS in the bottom of each plate and transfer to 15 ml conical centrifuge tubes. • Spin cells at 1000 RPM for 5 minutes and aspirate the solution. • To each tube, add 350 μl Qiagen RNeasy plus lysis buffer (with 2ME). • Transfer solution to Qiashredder columns and spin at 14,000 rpm for 2 minutes. • Proceed with RNeasy plus protocol following manufacturers recommendations. • Elute RNA from columns using 30 μl RNase free water. cDNA Synthesis and Real Time PCR: • First strand synthesis of cDNA from all samples was then performed following the recommended 20 μl total volume protocol using 10 μl isolated RNA. • All cDNA reactions were then diluted with 30 μl nuclease free water. • Real time PCR was then performed using 5 μl diluted cDNA, Roche Syber green master mix, and Qiagen RT^2 qPCR primer pairs (20 μl total volume). • Relative gene expression determined by delta deta Ct method. […]
# CXCR4 = CXCR4 transcription by MSC in hanging drop (3D) culture, RTPCR; assay type: cell-based, human; conditions: Actin normalization, 4 days
# Protocol: as §1, §2
# [1] = system: Bone marrow derived human mesenchymal stem cells; test: Migration (invasion) assay using pretreated stem cells, transwell, calcein AM fluorescence; assay type: cell-based; conditions: for mean FU: cells pretreated 72 hours, migration 24 hours; for FU 1: replicate 1; for FU 2: replicate 2; for FU 3: replicate 3
# Protocol: This experiment will be designed to establish if migration of MSC is altered as well.
# • Passage 5 Bone marrow derived human mesenchymal stem cells (HUXMA-01001, Cyagen Biosciences, Sunnyvale Calif.) • TheraPEAK MSCGM chemically defined Stem cell medium (190632 Lonza) • Lonza MSGM, Gibco RPMI, Gibco Defined fetal bovine serum. • 10 mM Cobalt chloride in saline, sterile filtered (Sigma) • Saline or 0.9% Sodium chloride for injection ZR Flush (Excelsior Medical, Neptune N.J.) • 0.2 μM syringe filters • Hepes buffered saline, Trypsin/EDTA, Trypsin neutralizing solution (Lonza reagent pack) • 25 and 175 cm^2 tissue culture flasks • pipettes and sterile tips • Tissue culture hood, humidified CO2 incubator, water or bead bath • 8.0 um Thincert tissue culture inserts and 24 well tissue culture plates (Greiner) • 50 μg Calcein AM vials (BD Biosciences) • DMSO (Sigma) Cell Expansion: • Passage 5 HUXMA cells were removed from liquid nitrogen storage and expanded in 175 cm^2 flasks containing 40 mls TheraPEAK MSCGM until 80-90% confluence. • Trypsinize cells using standard protocol and proceed to the next step. Treatment of Cells: • Prepare the following working dilutions in saline for injection from the stocks listed above. • Saline • 800 uM Cobalt Chloride in saline • Neat Ampion • Warm dilutions and Lonza MSCGM to 37° C. in bead bath. • Prepare a cell suspension of HUXMA stem cells in warmed MSCGM medium. • Count and then bring up 250,000 from the cell suspension in 4 mls warmed MSCGM. • Add the diluted cell solution to a 25 cm^2 tissue culture flasks. • Add 1 ml of the appropriate working dilution to the flask. • Incubate at 37° C. and 5% CO2 for 72 hours. Invasion Assay: • Remove the cells from the flask with trypsin and place in 600 μl RPMI+0.5% FBS. • Add 200 μl of the resulting cell suspension to the upper chamber of thinserts (3 inserts per treatment group) resting in a 24 well tissue culture plate. • Add 600 μl RPMI+0.5% FBS to the bottom chamber of the transwell system. • Add 66 μl of one the following solutions to the bottom chamber for each treatment group. • 550 ng/ml SDF (final 50 ng/ml) • 110 ng/ml TGF beta3 (final 10 ng/ml) • Serum (final 10%) • Incubate the plate for 24 hours at 37° C. and 5% CO2. Labeling and Cell Detection. • Remove two calcein AM vials and add 20 μl DMSO. • Transfer the contents of both vials to 12.5 ml RPMI containing 0.2% BSA. • Place 450 μl of the calcein AM solution (8 μM) in each well of a 24 well tissue culture plate. • Transfer the inserts from above to the wells containing calcein AM and incubate 45 minutes at 37° C. and 5% CO2. • After loading the cells with calcein AM, transfer the inserts to 24 well tissue culture plate wells containing 450 μl trypsin EDTA and incubate for another 10 minutes. • Discard inserts then add 450 μl trypsin neutralizing solution to each well. • Transfer 250 μl of the resulting solution to a 96 well black, flat bottom plate well (each reaction in triplicate). • Read fluorescence at 485 nm excitation and 530 nm emission.
structure (smiles),measurement,setting,value
"[Cl][Co][Cl] [Cobalt, Cobalt chloride]","2-ΔΔCp vs saline, CXCL12",CXCL12,0.005
same,"regulation, CXCL12",CXCL12,−219.79
same,"ΔΔCp vs saline, CXCL12",CXCL12,7.78
same,"ΔCp, CXCL12",CXCL12; hanging drop culture,14.91
same,"2-^ΔΔCp vs saline, CXCR4",CXCR4,8.369
same,"regulation, CXCR4",CXCR4,8.37
same,"ΔΔCp vs saline, CXCR4",CXCR4,−3.065
same,"ΔCp, CXCR4",CXCR4; hanging drop culture,11.19
same,% increase (migration vs saline),[1]; chemoattractant 10% FBS,29.1%
same,mean FU,[1]; chemoattractant 10% FBS,343.27 FU
same,FU 1,[1]; chemoattractant 10% FBS,346.49 FU
same,FU 2,[1]; chemoattractant 10% FBS,329.28 FU
same,FU 3,[1]; chemoattractant 10% FBS,354.03 FU
same,% increase (migration vs saline),[1]; chemoattractant SDF-1,1.2%
same,mean FU,[1]; chemoattractant SDF-1 (final 50 ng/ml),255.86 FU
same,FU 1,[1]; chemoattractant SDF-1,215.24 FU
same,FU 2,[1]; chemoattractant SDF-1,267.07 FU
same,FU 3,[1]; chemoattractant SDF-1,285.27 FU
same,% increase (migration vs saline),[1]; chemoattractant TGF B3,−6.8%
same,mean FU,[1]; chemoattractant TGF B3 (final 10 ng/ml),286.77 FU
same,FU 1,[1]; chemoattractant TGF B3,274.97 FU
same,FU 2,[1]; chemoattractant TGF B3,288.44 FU
same,FU 3,[1]; chemoattractant TGF B3,296.9 FU
